Here are results for eight molecules from article PMC8229396, “Myeloperoxidase Inhibitory and Antioxidant Activities of (E)-2-Hydroxy-α-aminocinnamic Acids Obtained through Microwave-Assisted Synthesis” (Pharmaceuticals, 2021).

Type in all cases: biochemical
Test [1] addresses T1, Myeloperoxidase (MPO) (Homo sapiens, UniProt P05164). Put plainly: MPO peroxidation assay (o-dianisidine/H2O2), dose-response.
Test [2] concerns the target T1, Myeloperoxidase (MPO). Put plainly: MPO peroxidation assay (o-dianisidine/H2O2), single concentration […].
Test [3] addresses T1, Myeloperoxidase (MPO). Put plainly: MPO peroxidation assay ([…] at […]) and taurine-chloramine chlorination assay ([…] at […]).

T1 sequence (P05164 165-273): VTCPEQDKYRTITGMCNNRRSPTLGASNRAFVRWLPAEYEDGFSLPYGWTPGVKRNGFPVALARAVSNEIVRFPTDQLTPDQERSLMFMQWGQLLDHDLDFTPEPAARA
T1 sequence (P05164 279-745): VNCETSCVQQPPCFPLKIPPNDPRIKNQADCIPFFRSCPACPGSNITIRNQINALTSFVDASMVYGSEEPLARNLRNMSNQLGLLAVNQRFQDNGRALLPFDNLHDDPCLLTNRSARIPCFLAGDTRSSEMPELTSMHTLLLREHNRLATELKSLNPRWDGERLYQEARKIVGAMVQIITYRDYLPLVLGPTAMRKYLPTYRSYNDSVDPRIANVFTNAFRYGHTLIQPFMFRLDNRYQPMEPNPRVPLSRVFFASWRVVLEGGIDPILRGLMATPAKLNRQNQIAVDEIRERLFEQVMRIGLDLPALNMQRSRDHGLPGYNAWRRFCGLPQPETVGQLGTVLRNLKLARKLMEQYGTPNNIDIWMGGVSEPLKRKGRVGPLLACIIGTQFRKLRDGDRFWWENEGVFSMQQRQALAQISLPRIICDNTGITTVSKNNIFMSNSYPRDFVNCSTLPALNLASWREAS

Broadly, the IC50 is the concentration at which inhibition is half-maximal. A higher IC50 goes with weaker potency. The molecule `N/C(=C/c1ccccc1O)C(=O)O` [2a, (E)-(2-hydroxy)-α-aminocinnamic acid] displayed an IC50 against Myeloperoxidase (MPO) [1] of 45 ± 4 µM.

In general, inhibition refers to the change of the read-out against control, counted positive when it falls. On Myeloperoxidase (MPO) [2], `N/C(=C/c1cc(Br)ccc1O)C(=O)O` [2b, (E)-(5-Bromo-2-hydroxy)-α-aminocinnamic acid] came in with an inhibition at 100 µM of 48.4 ± 4.1%.

`N/C(=C/c1cc(Cl)ccc1O)C(=O)O` [2c, (E)-(5-Chloro-2-hydroxy)-α-aminocinnamic acid]: 100 µM produced 40.5 ± 4.4% inhibition against Myeloperoxidase (MPO) [3].

`CCOc1cccc(/C=C(/N)C(=O)O)c1O` [2e, (E)-(3-Ethoxy-2-hydroxy)-α-aminocinnamic acid] gave an IC50 against Myeloperoxidase (MPO) [1] of 43 ± 4 µM.

Molecule `N/C(=C/c1ccc(O)cc1O)C(=O)O` [2f, (E)-(2,4-dihydroxy)-α-aminocinnamic acid] had an IC50 at Myeloperoxidase (MPO) [1] of 30 ± 5 µM.

Molecule `N/C(=C/c1cc(O)ccc1O)C(=O)O` [2h, (E)-(2,5-dihydroxy)-α-aminocinnamic acid] registered an IC50 against Myeloperoxidase (MPO) [1] of 26 ± 2 µM.

As for `Nc1ccc(O)c(C(=O)O)c1` [5-ASA, 5-aminosalicylic acid, reference compound], it took 39 ± 2 µM to reach half-maximal inhibition against Myeloperoxidase (MPO) [1] (IC50).

Turning to `COc1ccc2c(c1)c(CC(=O)O)c(C)n2C(=O)c1ccc(Cl)cc1` [indomethacin, reference compound], at Myeloperoxidase (MPO) [1], the IC50 came to 29 ± 2 µM.
